According to patent publication US12024736B2, “Method for detecting l-serine based on Escherichia coli cysteine desulfurase” (priority 2021, dated 2024):

How the values were obtained:
Type in all cases: biochemical
[1] = biological target: T1, E. coli cysteine desulfurase (Escherichia coli, UniProt P0A6B7, P222S); experiment: Anti-interference of the detection method for D-serine, cycloserine and serine derivatives
T1 construct: C-terminal histidine stretch (HHHHHH); made in house; host or cells: E. coli (IscA-/SufA- double-deficient strain is mentioned in the summary)

[2] = biological target: T1, E. coli cysteine desulfurase; experiment: Determination of the ability to resist other L-amino acids (colour after incubation with enzyme); settings: 4 mM amino acid, equal volume of enzyme, 37° C., 250 rpm, 2 h, naked eye
[3] = biological target: T1, E. coli cysteine desulfurase; experiment: Quantitative detection of L-serine, absorbance at 528 nm (reaction time and linear range); settings: L-serine standard with reaction buffer, 25° C.
Method: B. Reaction buffer: 40 mM Tris-HCl buffer (pH 9.0), 100 μM E. coli cysteine desulfurase, and 0.4 mM L-cysteine.
L-serine to be tested was mixed with the reaction buffer in equal volumes, and incubated at 25° ° C. for different times; the absorbance was measured at a wavelength of 528 nm; a curve was plotted with the time as the horizontal axis and the absorbance value at 528 nm as the longitudinal axis.
The L-serine standard solution was diluted to three concentrations, respectively: 0.50 mM, 1.00 mM, and 2.00 mM. Each serial dilution of the standard solution and the unknown sample (100 μL) were each mixed with 100 μL of reaction buffer, incubated at room temperature (25° C.) for 2 h, and the absorbance at 528 nm was measured for sample and standard tubes, respectively.
A standard curve was plotted with the concentration of the standard solution as the abscissa and the absorbance measured at a wavelength of 528 nm as the ordinate, and the curve was fitted to obtain a curve equation and an R^2 value.

SMILES	anti-interference ability of the detection method [1]	colour after incubation with E. coli cysteine desulfurase [2]	incubation time at which the absorption peak at 528 nm reaches the highest [3]
N[C@H](CO)C(=O)O [D-serine]	good anti-interference ability	–	–
N[C@@H](CO)C(=O)O [L-serine]	–	red	2 h
N[C@@H]1CON=C1O [cycloserine]	good anti-interference ability	–	–
